Where only a bound is given, the exact number is not on record here.

Assay [1] has as its system HCT116 (colorectal carcinoma cell line). Nature of the assay: MTS cell viability assay, 2D culture, HCT116. Type of assay: cell-based, human. The conditions noted are these: 48 h of exposure.
Experimental: (§1) The in vitro cytotoxic potential of Cu(II) complexes in tumor and healthy cells was assessed using the MTS assay, a colorimetric method that allows the quantification of viable cells in culture.[46]
Cell culture and maintenance
(§2) The cancer cell lines HCT116 (colorectal carcinoma) and A2780 (ovarian carcinoma) were obtained
(§3) from the American Type Culture Collection (ATCC®, Manassas, VA, USA), as well as the normal
(§4) Apart from the A2780 cell line, which was cultured in Roswell Park Memorial Institute (RPMI)
(§5) medium, all cells were cultured in Dulbecco’s modified Eagle medium (DMEM). Both media were
(§6) supplemented with 10% (v/v) fetal bovine serum (FBS) and 1% (v/v) of a Pen/Strep
(§7) (Penicillin/Streptomycin) solution. To maintain the resistant phenotype of the HCT116DoxR cell line,
(§8) the medium was additionally supplemented with 3.6 μM Dox4. All media and supplements were
(§9) purchased from Thermo Fischer Scientific (Waltham, MA, USA).
(§10) Cells were maintained in 25 cm2 T-flasks (T25) in a humidified atmosphere at 37 °C and 5% (v/v) CO
(§11) (SANYO CO2 Incubator, Electric Biomedical Co., Osaka, Japan).
(§12) The effect of Cu(II) complexes on cell viability was studied in HCT116, HCT116DoxR, and A2780
(§13) cancer cell lines and in normal human primary fibroblasts. Cells were seeded in a density of 0.75×105
(§14) cells/mL into 96-well plates and incubated in a humidified atmosphere at 37 °C and 5% (v/v) CO2 for
(§15) 24 h. After incubation, complexes were weighed, immediately solubilized in 100% (v/v) DMSO and
(§16) diluted for the final concentration with cell culture medium. The medium in each well was replaced by
(§17) a solution of fresh medium containing each Cu(II) complex (concentrations ranging from 0.01 μM to
(§18) as negative and positive controls, respectively.
(§19) Following a second incubation period of 48 h in the same conditions, the supernatant of each well was
(§20) replaced by a solution containing MTS reagent (3-(4,5-dimethylthiazol-2-yl)-5-(3-
(§21) carboxymethoxyphenyl)-2-(4-sulfophenyl)-2H-tetrazolium) provided by the CellTiter 96® AQueous
(§22) Non-Radioactive Cell Proliferation Assay Kit (Promega, Madison, WI, EUA) for a 30 minutes
(§23) incubation. The percentage of viable cells was indirectly determined by the spectrophotometric
(§24) quantification at 490 nm in a microplate reader, Tecan Infinite M200 (Tecan, Männedorf, Switzerland)
(§25) of formazan production, resultant from the reduction of the MTS reagent by mitochondrial
(§26) dehydrogenases. Since these enzymes are only active in viable cells, the absorbance value measured is
(§27) directly proportional to the percentage of viable cells in culture5.
(§28) By analysing the cell viability as a function of log10(concentration) using Prism 8 (GraphPad
(§29) in cell viability) of each complex in the respective cell line at 48 h. The selective index (SI) for each
(§30) complex was also determined by dividing the IC50 of human fibroblasts by the respective IC50 in each
(§31) cancer cell line (allowing us to understand how much active a complex is in tumor versus normal cell).
In assay [2] the test system is A2780 (ovarian carcinoma cell line). Nature of the assay: MTS cell viability assay, 2D culture, A2780. The settings on record: 48 h of exposure. The class given is cell-based, human. (In general: Formazan colour is commonly taken as a measure of viable cells.)
Experimental: as §1
Cell culture and maintenance
as §2, §3, §4, §5, §6, §7, §8, §9, §10, §11, §12, §13, §14, §15, §16, §17, §18, §19, §20, §21, §22, §23, §24, §25, §26, §27, §28, §29, §30, §31
In assay [3] the test system is normal human primary dermal fibroblasts. Nature of the assay: MTS cell viability assay, normal fibroblasts. Type of assay: cell-based. The settings on record: 48 h of exposure.
Experimental: as §1
Cell culture and maintenance
as §2, §3, §4, §5, §6, §7, §8, §9, §10, §11, §12, §13, §14, §15, §16, §17, §19, §20, §22, §23, §24, §25
For assay [4], the system named is HCT116DoxR (Dox-resistant colorectal carcinoma cell line). Nature of the assay: MTS cell viability assay, 2D culture, HCT116DoxR. The conditions noted are these: read-out: IC50 (μM) HCT116DoxR, 48 h of exposure.
Experimental: as §1
In this regard, cell viability was performed for each of the ligands on HCT116DoxR and fibroblasts.
Cell culture and maintenance
as §2, §3, §4, §5, §6, §7, §8, §9, §10, §11, §12, §13, §14, §15, §16, §17, §18, §19, §20, §21, §22, §23, §24, §25, §26, §27
The test system of assay [5] is pUC18 plasmid DNA. Description: pDNA cleavage in vitro (agarose gel electrophoresis). The conditions noted are these: 24 h; TBHP 20 μM, NaN3 50 μM. The class given is biochemical, E. coli.

As usually defined, the IC50 is the midpoint of a concentration-inhibition curve. In the case of `F[P-](F)(F)(F)(F)F.F[P-](F)(F)(F)(F)F.[Cl][Cu].[Cl][Cu].c1ccc(-c2cc(-c3cccc4ccccc34)cc(-c3ccccn3)n2)nc1.c1ccc(-c2cc(-c3cccc4ccccc34)cc(-c3ccccn3)n2)nc1` [complex 1, [Cu2Cl2(4′-(1-Naphthyl)-terpy)2](PF6)2], the IC50 in assay [1] came to 0.16 ± 0.01 µM; in assay [2] it was 0.8 ± 0.05 µM; in assay [3] it was 3.04 ± 0.02 µM; in assay [4] it was 0.12 ± 0.01 µM.

Regarding `CCn1c2ccccc2c2cc(-c3cc(-c4ccccn4)nc(-c4ccccn4)c3)ccc21` [L8], the IC50 in assay [3] was approximately 10 µM; in assay [4], 0.4 ± 0.04 µM.

Turning to `c1ccc(-c2cc(-c3cccc4ccccc34)cc(-c3ccccn3)n2)nc1` [L1], the 50% inhibitory concentration (IC50) in assay [3] is more than 50 µM; in assay [4] it was approximately 0.2 µM.

As to `CC(C)(C)OO` [TBHP, Tert-Butyl hydroperoxide, reference compound], in assay [5], the “effect of control reagent alone on pUC18” value is recorded as “unable to induce pUC18 cleavage”.

For `c1ccc(-c2cc(-c3ccccn3)nc(-c3ccccn3)c2)nc1` [L7], the values for the IC50 in assay [3] and in assay [4] were approximately 50 µM and 0.5 ± 0.06 µM, respectively.

As for `c1ccc(-c2cc(-c3ccnc4ccccc34)cc(-c3ccccn3)n2)nc1` [L2], the half-maximal inhibitory concentration (IC50) is more than 50 µM in assay [3] and 0.4 ± 0.02 µM in assay [4].

On to `COc1ccc2c(OC)ccc(-c3cc(-c4ccccn4)nc(-c4ccccn4)c3)c2c1.COc1ccc2c(OC)ccc(-c3cc(-c4ccccn4)nc(-c4ccccn4)c3)c2c1.F[P-](F)(F)(F)(F)F.F[P-](F)(F)(F)(F)F.[Cl][Cu].[Cl][Cu]` [complex 4, [Cu2Cl2(4′-(4,7-Dimethoxy-1-naphthyl)-terpy)2](PF6)2], for which the IC50 was determined as 0.15 ± 0.04 µM in assay [1], 0.49 ± 0.1 µM in assay [2], 2.64 ± 0.1 µM in assay [3] and 0.16 ± 0.01 µM in assay [4].

With `[N-]=[N+]=[N-].[Na+]` [NaN3, sodium azide, reference compound], in assay [5], the “effect of control reagent alone on pUC18” value is “no effect”.

In the case of `COc1ccc2c(OC)ccc(-c3cc(-c4ccccn4)nc(-c4ccccn4)c3)c2c1` [L4], the figures for the IC50 in assay [3] and in assay [4] were 13.1 ± 3.18 µM and 0.4 ± 0.25 µM, respectively.

For the compound `c1ccc(-c2cc(-c3ccco3)cc(-c3ccccn3)n2)nc1` [L5], the results for the 50% inhibitory concentration (IC50) in assay [3] and in assay [4] were more than 50 µM and 0.6 ± 0.02 µM, respectively.

Take `CCn1c2ccccc2c2cc(-c3cc(-c4ccccn4)nc(-c4ccccn4)c3)ccc21.CCn1c2ccccc2c2cc(-c3cc(-c4ccccn4)nc(-c4ccccn4)c3)ccc21.F[P-](F)(F)(F)(F)F.F[P-](F)(F)(F)(F)F.[Cl][Cu].[Cl][Cu]` [complex 8, [Cu2Cl2(4′-(N-Ethyl-9H-carbazol-3-yl)-terpy)2](PF6)2]: the concentration for half-maximal inhibition (IC50) in assay [1] is 0.1 ± 0.03 µM; in assay [2], 0.37 ± 0.06 µM; in assay [3], 7.36 ± 0.04 µM; in assay [4] it was 0.19 ± 0.06 µM.

For the origin of these results see article PMC11017252, “Copper(II) Complexes with 2,2′:6′,2″-Terpyridine Derivatives Displaying Dimeric Dichloro−μ–Bridged Crystal Structure: Biological Activities from 2D and 3D Tumor Spheroids to In Vivo Models” (Journal of Medicinal Chemistry, 2024).
